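Briefly, cells in 96-well plates were exposed to five compound concentrations for 48 h, and endpoints were estimated by linear interpolation. The concentration for 50% growth inhibition is given as GI50. TGI denotes the concentration required for complete inhibition of growth.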
Columns and labels:
Experiment in all cases: NCI-60 cell line screen, 48 h
[1] = test system: OVCAR-3 ovarian
[2] = test system: SK-MEL-5 melanoma
[3] = test system: RPMI-8226 leukemia
[4] = test system: EKVX NSCLC
[5] = test system: SNB-19 CNS
[6] = test system: ACHN renal
[7] = test system: RXF 393 renal
[8] = test system: SF-539 CNS
[9] = test system: M14 melanoma
[10] = test system: SK-MEL-28 melanoma

Structure (SMILES)	GI50 [1]	TGI [1]	GI50 [2]	TGI [2]	GI50 [3]	TGI [3]	GI50 [4]	TGI [4]	GI50 [5]	TGI [5]	GI50 [6]	TGI [6]	GI50 [7]	TGI [7]	GI50 [8]	TGI [8]	TGI [9]	TGI [10]	GI50 [9]	GI50 [10]
COc1ccc(/C=C2\CC(C)CC3C2=NN(C(C)=O)C3c2ccc(OC)cc2)cc1 (configuration not stated)	18.7 µM	42.4 µM	13.9 µM	31.3 µM	10.9 µM	53.2 µM	27.3 µM	> 100 µM	27.6 µM	> 100 µM	17200 nM	39.3 µM	27.2 µM	> 100 µM	19 µM	38.1 µM	–	–	–	–
CN1C(c2ccccc2)CS(=O)(=O)CS1(=O)=O (configuration not stated)	–	88.7 µM	–	> 100 µM	–	–	–	> 100 µM	–	> 100 µM	–	> 100 µM	–	> 100 µM	–	> 100 µM	> 100 µM	> 100 µM	–	–
CN(C)CCNC(=O)c1cccc2c(Nc3ccc(S(N)(=O)=O)cc3)c3ccccc3nc12	–	5.85 µM	–	10.3 µM	–	77.2 µM	–	10.2 µM	–	10.7 µM	–	5.2 µM	–	–	–	3.23 µM	5.72 µM	3 µM	–	–
COC1=CC23CCCN2CCc2cc4c(cc2C3C1O)OCO4 (configuration not stated)	–	–	–	54 µM	–	–	–	> 100 µM	–	67.8 µM	–	60.1 µM	–	–	–	> 100 µM	> 100 µM	> 100 µM	–	–
O=S(=O)(N/N=C/c1cccc(Cl)c1Cl)c1ccccc1	–	> 100 µM	–	> 100 µM	–	> 100 µM	–	> 100 µM	–	–	–	> 100 µM	–	> 100 µM	–	> 100 µM	> 100 µM	> 100 µM	–	–
O=c1cc(-c2ccccc2)oc2cc(O)cc(O)c12	–	82.1 µM	–	23.4 µM	–	41.7 µM	–	72 µM	–	88.8 µM	–	33.9 µM	–	–	–	31.3 µM	82.9 µM	43.5 µM	–	–
CN(C)c1ncc(-c2ccc(C(F)(F)F)cc2)c(NC2CCCCCC2)n1	16.3 µM	33.3 µM	14 µM	28.3 µM	6.51 µM	24.4 µM	–	–	15.6 µM	37.5 µM	16000 nM	31.2 µM	10.8 µM	27.2 µM	21.7 µM	55.2 µM	> 100 µM	60.3 µM	24 µM	19.6 µM
CC(C)C1CC2C(=O)N(c3ccccc3)C(=O)C2c2[nH]c3ccccc3c21 (configuration not stated)	–	38 µM	–	> 100 µM	–	> 100 µM	–	> 100 µM	–	–	–	38.3 µM	–	57.4 µM	–	67.5 µM	> 100 µM	> 100 µM	–	–
CC(=O)O[C@@H]1[C@@H](O)C2=C3[C@]4(C)[C@@H]1C(C)(C)C(=O)C[C@@H]4[C@]3(O)[C@H](OC(C)=O)[C@@]1(C[C@@H]1C)C2=O	–	36.5 µM	–	48.8 µM	–	98.4 µM	–	40.7 µM	–	61.5 µM	–	43.4 µM	–	–	–	56.1 µM	91.9 µM	37.1 µM	–	–
Nc1nc2cc3ccc(C4CC(O)C(CO)O4)cc3cc2c(=O)[nH]1 (configuration not stated)	> 100 µM	> 100 µM	> 100 µM	> 100 µM	> 100 µM	> 100 µM	> 100 µM	> 100 µM	> 100 µM	> 100 µM	–	–	> 100 µM	> 100 µM	> 100 µM	> 100 µM	> 100 µM	> 100 µM	> 100 µM	> 100 µM
CC#C/C(=N\OC[C@H]1COCCN1)c1ccc2ncnc(Nc3ccc(OCc4cccc(F)c4)c(Cl)c3)c2c1	1.43 µM	2.94 µM	1.85 µM	3.45 µM	1.66 µM	3.81 µM	0.343 µM	2.44 µM	1.3 µM	2.69 µM	–	–	–	–	1.68 µM	3.2 µM	3.59 µM	3.34 µM	1.76 µM	1.77 µM
O=C(c1ccccc1)c1oc2ccc(Br)cc2c1-c1cnn(-c2ccccc2)c1	–	> 100 µM	–	–	–	> 100 µM	–	–	–	> 100 µM	–	> 100 µM	–	> 100 µM	–	–	> 100 µM	> 100 µM	–	–
CN(C)CCSc1cccc(-c2cc(-c3cccc(SCCN(C)C)c3)nc(SCCN(C)C)n2)c1	–	21.8 µM	–	2.96 µM	–	–	–	5.24 µM	–	–	–	19.4 µM	–	2.8 µM	–	3.19 µM	2.99 µM	3.4 µM	–	–
O=C(/C=C/C=C/c1c(C2CC2)nc2ccccc2c1-c1ccc(F)cc1)c1cccs1	1.5 µM	4.99 µM	1.34 µM	2.74 µM	–	–	3.09 µM	> 100 µM	4.05 µM	> 100 µM	1340 nM	3.86 µM	–	–	2.39 µM	6.65 µM	–	> 100 µM	–	3.57 µM
CC1=C(C(=O)NCc2ccccc2)C(c2ccc([N+](=O)[O-])cc2)C(C(=O)NCc2ccccc2)=C(C)N1	–	> 100 µM	–	> 100 µM	–	–	–	> 100 µM	–	> 100 µM	–	89.7 µM	–	86.5 µM	–	> 100 µM	48.5 µM	> 100 µM	–	–
CC1=C(C(=O)Nc2cc(=O)n(C)c(=O)n2C)C(c2ccc([N+](=O)[O-])cc2)C(C(=O)Nc2cc(=O)n(C)c(=O)n2C)=C(C)N1	–	> 100 µM	–	–	–	> 100 µM	–	> 100 µM	–	> 100 µM	–	> 100 µM	–	> 100 µM	–	> 100 µM	> 100 µM	> 100 µM	–	–
CN1CCN(c2ccc(Nc3nc(N)c(C(=O)c4ccc5c(c4)OCCO5)s3)cc2)CC1	4.05 µM	9.69 µM	3.52 µM	8.88 µM	3.85 µM	11.6 µM	–	–	4.14 µM	24.3 µM	1850 nM	6.57 µM	1.71 µM	5.71 µM	4.25 µM	8.33 µM	> 18.1 µM	10.5 µM	3.99 µM	4.6 µM
Cc1cc(Nc2c3ccccc3nc3ccccc23)ccc1NS(C)(=O)=O	6.13 µM	20.1 µM	4.2 µM	16.6 µM	3.02 µM	11.2 µM	–	–	5.65 µM	35.9 µM	2960 nM	12.5 µM	3.46 µM	16 µM	3.74 µM	14.9 µM	14.1 µM	19.5 µM	3.69 µM	5.4 µM

From PubChem BioAssay (NCI)
